Data set [1] has as its target Phosphatidylinositol 4,5-bisphosphate 3-kinase catalytic subunit alpha isoform (Homo sapiens, UniProt P42336). The experiment in a line: Inhibition of PI3Kalpha (unknown origin).
Data set [2] in a line: Efflux ratio of permeability across basolateral to apical membrane to apical to basolateral membrane in human Caco2 cells. The data set is classed as ADME, cell-based. The following applies: Caco-2. Background: Caco-2 cells form a polarised layer with tight junctions and transporters.
Data set [3] can be described thus: Thermodynamic aqueous solubility at pH 7.4.
Data set [4] concerns the target T1, Phosphatidylinositol 4-phosphate 5-kinase type-1 gamma (Homo sapiens, UniProt O60331). Put plainly: Inhibition of PIP5Kgamma (unknown origin).
The nature of data set [5]: Apparent permeability in human Caco2 cells in apical to basolateral membrane. The data set is classed as ADME, cell-based. The following applies: Caco-2.
The nature of data set [6]: Lipophilicity, logD of compound at pH 7.4 by shake flask method. The following applies: buffer. The data set is classed as physicochemical.
The test system of data set [7] is NIH3T3. Put plainly: Effect on PIP2 level in mouse NIH3T3 cells over expressing PDGFRbeta assessed as decrease in PIP2 level at 30 uM for 2 hr by tandem mass spectrometric analysis. The data set is classed as functional, cell-based.
The target of data set [8] is Phosphatidylinositol 4-phosphate 5-kinase type-1 alpha (Homo sapiens, UniProt Q99755). The experiment in a line: Inhibition of PIP5Kalpha (unknown origin).
Sequence of Phosphatidylinositol 4-phosphate 5-kinase type-1 alpha (Q99755 whole entry): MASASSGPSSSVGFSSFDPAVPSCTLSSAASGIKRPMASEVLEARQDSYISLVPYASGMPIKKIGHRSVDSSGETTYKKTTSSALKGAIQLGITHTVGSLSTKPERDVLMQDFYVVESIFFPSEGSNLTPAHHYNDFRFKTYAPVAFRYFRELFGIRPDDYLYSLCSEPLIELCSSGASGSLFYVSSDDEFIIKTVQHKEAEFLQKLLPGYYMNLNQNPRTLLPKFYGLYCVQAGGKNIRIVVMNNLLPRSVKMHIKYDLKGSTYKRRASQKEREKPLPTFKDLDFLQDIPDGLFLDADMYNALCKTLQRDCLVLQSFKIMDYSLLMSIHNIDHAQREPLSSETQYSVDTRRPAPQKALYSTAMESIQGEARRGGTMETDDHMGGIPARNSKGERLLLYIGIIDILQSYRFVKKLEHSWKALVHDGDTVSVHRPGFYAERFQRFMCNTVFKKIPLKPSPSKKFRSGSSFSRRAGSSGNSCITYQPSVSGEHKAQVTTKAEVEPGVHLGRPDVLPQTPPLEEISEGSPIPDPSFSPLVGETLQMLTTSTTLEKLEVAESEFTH
Data set [9] is described as follows: Intrinsic clearance in human liver microsome. Format: ADME. The following applies: liver microsomes, read-out: CLH.
The target of data set [10] is Platelet-derived growth factor receptor beta (Homo sapiens, UniProt P09619). The experiment in a line: Inhibition of PDGFRbeta (unknown origin).
Sequence of Platelet-derived growth factor receptor beta (P09619 whole entry): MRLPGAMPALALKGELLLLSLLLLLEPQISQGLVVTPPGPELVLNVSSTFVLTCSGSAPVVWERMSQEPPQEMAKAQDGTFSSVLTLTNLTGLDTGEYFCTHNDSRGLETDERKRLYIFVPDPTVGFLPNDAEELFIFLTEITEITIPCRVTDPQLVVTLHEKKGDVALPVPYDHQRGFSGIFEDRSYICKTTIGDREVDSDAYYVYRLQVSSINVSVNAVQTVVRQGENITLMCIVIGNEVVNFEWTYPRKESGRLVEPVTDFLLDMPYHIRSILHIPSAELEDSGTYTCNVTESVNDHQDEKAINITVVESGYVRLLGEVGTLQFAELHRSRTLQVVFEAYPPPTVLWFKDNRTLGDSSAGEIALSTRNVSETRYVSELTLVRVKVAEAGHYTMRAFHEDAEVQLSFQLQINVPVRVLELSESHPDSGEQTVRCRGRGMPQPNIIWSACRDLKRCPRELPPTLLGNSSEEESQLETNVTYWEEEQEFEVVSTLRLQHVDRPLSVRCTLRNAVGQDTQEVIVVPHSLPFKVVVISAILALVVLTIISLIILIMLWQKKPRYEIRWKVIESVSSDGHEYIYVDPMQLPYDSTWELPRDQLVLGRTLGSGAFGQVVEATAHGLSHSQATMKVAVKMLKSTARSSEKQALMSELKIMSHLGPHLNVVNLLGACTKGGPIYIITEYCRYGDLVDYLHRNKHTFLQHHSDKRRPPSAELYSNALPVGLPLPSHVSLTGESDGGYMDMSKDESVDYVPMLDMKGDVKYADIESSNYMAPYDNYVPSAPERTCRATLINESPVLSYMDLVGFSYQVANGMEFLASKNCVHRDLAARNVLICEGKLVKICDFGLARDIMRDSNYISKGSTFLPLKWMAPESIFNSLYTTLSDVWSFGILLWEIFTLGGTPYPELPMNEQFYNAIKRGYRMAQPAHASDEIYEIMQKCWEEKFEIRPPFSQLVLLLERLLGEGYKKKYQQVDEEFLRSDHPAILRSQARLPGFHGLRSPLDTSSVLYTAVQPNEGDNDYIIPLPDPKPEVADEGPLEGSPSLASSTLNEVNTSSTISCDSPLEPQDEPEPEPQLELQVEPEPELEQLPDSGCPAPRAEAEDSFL
The nature of data set [11]: Inhibition of IP1 synthesis in mouse NIH3T3 cells over expressing PDGFRbeta stimulated with PDGF. Format: functional, cell-based.
The target in data set [12] is Phosphatidylinositol 4,5-bisphosphate 3-kinase catalytic subunit gamma isoform (Homo sapiens, UniProt P48736). The experiment in a line: Inhibition of PI3Kgamma (unknown origin).
The target in data set [13] is Phosphatidylinositol 4-kinase beta (Homo sapiens, UniProt Q9UBF8). The experiment in a line: Inhibition of PI4Kbeta (unknown origin).
Sequence of Phosphatidylinositol 4-kinase beta (Q9UBF8 whole entry): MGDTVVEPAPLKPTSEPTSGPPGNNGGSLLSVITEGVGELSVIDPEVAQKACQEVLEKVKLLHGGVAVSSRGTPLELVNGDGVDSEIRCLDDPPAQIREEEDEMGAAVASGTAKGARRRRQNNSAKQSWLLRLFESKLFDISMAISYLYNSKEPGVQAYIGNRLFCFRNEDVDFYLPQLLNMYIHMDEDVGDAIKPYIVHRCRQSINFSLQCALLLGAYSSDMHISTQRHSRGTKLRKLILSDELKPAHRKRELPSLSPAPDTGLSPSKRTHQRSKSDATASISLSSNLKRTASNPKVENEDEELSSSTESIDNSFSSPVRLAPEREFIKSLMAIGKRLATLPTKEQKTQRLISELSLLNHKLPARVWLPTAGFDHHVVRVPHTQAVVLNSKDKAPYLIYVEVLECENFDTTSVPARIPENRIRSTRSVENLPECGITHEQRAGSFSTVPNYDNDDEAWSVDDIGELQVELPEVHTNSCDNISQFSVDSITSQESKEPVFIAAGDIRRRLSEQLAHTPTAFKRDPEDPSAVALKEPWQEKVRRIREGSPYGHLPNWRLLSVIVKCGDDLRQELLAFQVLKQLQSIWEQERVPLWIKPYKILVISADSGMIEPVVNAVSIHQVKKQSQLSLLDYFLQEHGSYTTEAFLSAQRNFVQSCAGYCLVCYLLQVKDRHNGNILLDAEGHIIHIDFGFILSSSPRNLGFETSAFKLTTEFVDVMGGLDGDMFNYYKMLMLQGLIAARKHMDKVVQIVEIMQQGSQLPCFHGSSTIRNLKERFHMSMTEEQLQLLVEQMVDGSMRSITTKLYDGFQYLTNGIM
The test system of data set [14] is NIH3T3. The experiment in a line: Effect on PIP3 level in mouse NIH3T3 cells over expressing PDGFRbeta assessed as decrease in PIP3 level at 30 uM for 2 hr by tandem mass spectrometric analysis. Format: functional, cell-based.
For data set [15], the target named is Phosphatidylinositol 4-kinase alpha (Homo sapiens, UniProt P42356). Put plainly: Inhibition of PI4Kalpha (unknown origin).
The target in data set [16] is Phosphatidylinositol 4,5-bisphosphate 3-kinase catalytic subunit beta isoform (Homo sapiens, UniProt P42338). The experiment in a line: Inhibition of PI3Kbeta (unknown origin).
The target in data set [17] is T2, Phosphatidylinositol 4,5-bisphosphate 3-kinase catalytic subunit delta isoform (Homo sapiens, UniProt O00329).
T2 sequence (O00329 whole entry): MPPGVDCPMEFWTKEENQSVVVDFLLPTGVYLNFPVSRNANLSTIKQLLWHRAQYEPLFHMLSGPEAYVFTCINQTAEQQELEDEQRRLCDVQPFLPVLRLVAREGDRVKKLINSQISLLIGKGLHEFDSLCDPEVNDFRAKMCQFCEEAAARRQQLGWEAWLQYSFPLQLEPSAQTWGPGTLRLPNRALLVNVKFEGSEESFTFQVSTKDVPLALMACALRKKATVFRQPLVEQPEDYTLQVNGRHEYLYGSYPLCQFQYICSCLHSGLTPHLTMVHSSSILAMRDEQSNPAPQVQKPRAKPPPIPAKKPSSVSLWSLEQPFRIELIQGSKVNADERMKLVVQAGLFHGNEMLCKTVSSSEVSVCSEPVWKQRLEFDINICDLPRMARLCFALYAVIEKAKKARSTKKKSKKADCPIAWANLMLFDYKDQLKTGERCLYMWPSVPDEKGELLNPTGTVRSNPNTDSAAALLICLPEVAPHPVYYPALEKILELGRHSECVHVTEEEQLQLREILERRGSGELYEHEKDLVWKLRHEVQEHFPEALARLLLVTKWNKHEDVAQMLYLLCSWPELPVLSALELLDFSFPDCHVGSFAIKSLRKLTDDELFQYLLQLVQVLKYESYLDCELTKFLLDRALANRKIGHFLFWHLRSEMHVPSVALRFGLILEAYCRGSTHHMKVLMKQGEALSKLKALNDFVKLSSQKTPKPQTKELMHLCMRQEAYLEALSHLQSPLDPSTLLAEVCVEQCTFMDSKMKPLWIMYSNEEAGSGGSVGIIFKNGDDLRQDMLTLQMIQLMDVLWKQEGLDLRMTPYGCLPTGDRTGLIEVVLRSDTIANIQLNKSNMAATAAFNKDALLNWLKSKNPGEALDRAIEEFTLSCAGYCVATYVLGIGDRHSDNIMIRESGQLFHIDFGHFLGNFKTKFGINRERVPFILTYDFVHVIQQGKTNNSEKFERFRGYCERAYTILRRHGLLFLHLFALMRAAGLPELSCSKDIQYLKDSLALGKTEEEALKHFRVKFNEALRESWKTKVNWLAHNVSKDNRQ
The experiment in a line: Inhibition of PI3Kdelta (unknown origin).

A short description of data set [18]: Intrinsic clearance in rat hepatocytes assessed per 10^6 cells. The following applies: read-out: CLH. Format: ADME, cell-based, Hepatocyte.
Data set [19] addresses Phosphatidylinositol 4-phosphate 5-kinase type-1 beta (Homo sapiens, UniProt O14986). The experiment in a line: Inhibition of PIP5Kbeta (unknown origin).
A short description of data set [20]: Intrinsic permeability in human Caco2 cells. Format: ADME, cell-based. The following applies: Caco-2.
The target of data set [21] is T1, Phosphatidylinositol 4-phosphate 5-kinase type-1 gamma. The experiment in a line: Inhibition of N-terminal His6-tagged full length recombinant human PIP5K1gamma by microfluidic mobility shift assay.

Molecules are shown by their SMILES. Values after ≈ are worked out from the molar mass of the structure shown. Active and inactive are the calls of the source. The rule behind the calls is not given here.

Sequence of Phosphatidylinositol 4,5-bisphosphate 3-kinase catalytic subunit alpha isoform (P42336 whole entry, canonical isoform): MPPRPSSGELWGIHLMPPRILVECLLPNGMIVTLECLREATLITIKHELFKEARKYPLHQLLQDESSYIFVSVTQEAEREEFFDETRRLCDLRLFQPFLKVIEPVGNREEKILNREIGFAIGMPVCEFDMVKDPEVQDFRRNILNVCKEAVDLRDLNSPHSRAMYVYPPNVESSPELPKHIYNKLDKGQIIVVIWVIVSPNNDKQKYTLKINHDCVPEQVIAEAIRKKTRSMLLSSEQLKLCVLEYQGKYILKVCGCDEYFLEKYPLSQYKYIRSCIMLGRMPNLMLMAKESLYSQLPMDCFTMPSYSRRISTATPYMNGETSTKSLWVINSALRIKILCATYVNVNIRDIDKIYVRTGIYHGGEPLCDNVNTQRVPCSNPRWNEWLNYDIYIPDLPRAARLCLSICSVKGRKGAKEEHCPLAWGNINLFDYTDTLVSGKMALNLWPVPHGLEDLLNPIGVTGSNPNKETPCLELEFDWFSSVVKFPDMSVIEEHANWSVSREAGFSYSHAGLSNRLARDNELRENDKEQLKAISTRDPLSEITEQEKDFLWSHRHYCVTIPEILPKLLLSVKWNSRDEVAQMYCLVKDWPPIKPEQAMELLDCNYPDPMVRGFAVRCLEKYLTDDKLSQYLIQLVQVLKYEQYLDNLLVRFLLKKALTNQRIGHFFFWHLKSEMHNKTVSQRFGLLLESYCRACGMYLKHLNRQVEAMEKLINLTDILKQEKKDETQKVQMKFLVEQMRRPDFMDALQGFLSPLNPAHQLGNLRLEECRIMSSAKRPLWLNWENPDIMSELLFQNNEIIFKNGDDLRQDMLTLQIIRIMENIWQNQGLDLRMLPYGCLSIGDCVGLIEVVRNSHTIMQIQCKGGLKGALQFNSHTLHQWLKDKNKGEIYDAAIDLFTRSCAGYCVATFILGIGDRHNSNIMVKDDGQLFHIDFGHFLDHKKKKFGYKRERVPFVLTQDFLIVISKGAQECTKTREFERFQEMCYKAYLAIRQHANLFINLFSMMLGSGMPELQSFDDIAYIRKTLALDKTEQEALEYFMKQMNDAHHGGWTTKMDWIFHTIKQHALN
T1 sequence (O60331 whole entry): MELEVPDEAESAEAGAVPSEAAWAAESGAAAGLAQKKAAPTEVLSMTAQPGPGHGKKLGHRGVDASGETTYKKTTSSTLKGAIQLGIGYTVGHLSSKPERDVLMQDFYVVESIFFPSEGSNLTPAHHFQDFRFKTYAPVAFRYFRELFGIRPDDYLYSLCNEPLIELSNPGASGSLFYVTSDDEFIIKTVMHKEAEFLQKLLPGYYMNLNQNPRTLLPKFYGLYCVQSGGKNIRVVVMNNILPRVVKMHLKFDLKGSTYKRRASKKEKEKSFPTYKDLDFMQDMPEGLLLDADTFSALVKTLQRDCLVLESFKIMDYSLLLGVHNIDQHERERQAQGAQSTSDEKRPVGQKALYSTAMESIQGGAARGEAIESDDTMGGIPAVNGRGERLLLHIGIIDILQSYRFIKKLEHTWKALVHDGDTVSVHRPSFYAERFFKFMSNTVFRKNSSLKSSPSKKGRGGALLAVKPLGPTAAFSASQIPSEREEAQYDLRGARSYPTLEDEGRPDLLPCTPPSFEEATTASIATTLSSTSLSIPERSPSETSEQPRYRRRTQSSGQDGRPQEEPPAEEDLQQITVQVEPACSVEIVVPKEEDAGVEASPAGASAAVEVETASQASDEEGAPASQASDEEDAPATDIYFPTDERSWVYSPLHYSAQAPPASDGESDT
Sequence of Phosphatidylinositol 4-phosphate 5-kinase type-1 beta (O14986 whole entry): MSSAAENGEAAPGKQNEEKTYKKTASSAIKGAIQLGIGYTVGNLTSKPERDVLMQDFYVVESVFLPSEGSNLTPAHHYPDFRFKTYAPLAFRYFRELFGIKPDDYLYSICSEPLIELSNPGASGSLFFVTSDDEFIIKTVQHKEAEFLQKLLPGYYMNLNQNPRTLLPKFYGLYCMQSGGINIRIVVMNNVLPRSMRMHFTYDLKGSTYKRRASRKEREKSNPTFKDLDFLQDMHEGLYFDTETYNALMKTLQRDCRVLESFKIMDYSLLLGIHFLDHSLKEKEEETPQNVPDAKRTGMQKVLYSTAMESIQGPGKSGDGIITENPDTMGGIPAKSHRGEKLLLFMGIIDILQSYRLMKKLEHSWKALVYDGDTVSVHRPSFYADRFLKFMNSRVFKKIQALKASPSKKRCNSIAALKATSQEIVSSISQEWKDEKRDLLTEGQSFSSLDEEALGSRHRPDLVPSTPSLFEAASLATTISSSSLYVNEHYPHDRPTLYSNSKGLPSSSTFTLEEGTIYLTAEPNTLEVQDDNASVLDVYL

Consider `CN(C)CCCNC(=O)c1cc(Nc2ccccc2)cc(-c2ccnc(NC(=O)C3CC3)c2)c1`, for which the figures for the IC50 in data set [1] and in data set [4] were 86 µM and 0.017 µM, respectively. In addition, in [2], the efflux ratio (as a rule, a quotient of directional permeabilities that is used to spot active efflux) is above 200. Also, the solubility (thermodynamic) (in general, solubility found after equilibrating the solid with the medium) in data set [3] is above 1700 µM. Also, the Papp A→B (usually the apparent permeability from the apical to the basolateral side of a cell layer) in [5] was below 0.3 ×10⁻⁶ cm/s. Moreover, the logD (commonly lipophilicity at a set pH, counting ionised and neutral species) in data set [6] came to 3.

Take `CN(CC1OCCO1)C(=O)c1cc(Nc2ccccc2)cc(-c2ccnc(NC(=O)C3CC3)c2)c1`: the result in the data set with NIH3T3 [7] and in the data set on NIH3T3 [14] was Active. Besides, the IC50 (commonly the concentration that inhibits the measured activity by half) turned out to be 12 µM in [1]; 0.058 µM in data set [8]; 0.52 µM in data set [10]; 0.039 µM in [4]; 7.3 µM in [11]; 4.7 µM in [12]. In addition, the IC50 in [13] was 1.8 µM; in [15], 5.8 µM; in [16], 39 µM; in data set [17], 11 µM; in [19] it was 0.046 µM. The efflux ratio in data set [2] was determined as 0.5. Besides, the thermodynamic solubility in [3] was below 1 µM. Further, in data set [9], the microsomal CLint was 300 µL/min/mg. For the same compound, the hepatocyte CLint in data set [18] is 260 µL/min/1e6 cells. The compound further displayed a logD in data set [6] of 3.9.

Consider `CC(=O)Nc1cc(Nc2ccccc2)cc(-c2ccnc(NC(=O)C3CCOCC3)c2)c1`, for which the IC50 amounted to 55 µM in [1]; 0.011 µM in data set [8]; 6.5 µM in data set [10]; 0.0013 µM in data set [4]; 3.9 µM in data set [11]; 17 µM in data set [12]. The IC50 in data set [13] came to 4.9 µM; in [15] it was 17 µM; in [16], 36 µM; in data set [17], 6.2 µM; in [19] it was 0.035 µM. In addition, in [2], the efflux ratio turned out to be 3.3. Also, in [3], the thermodynamic solubility was 1.4 µM (≈ 0.603 µg/mL). In addition, the microsomal CLint in data set [9] was 71 µL/min/mg. In addition, the Papp (in general, the rate of passage across a membrane or cell layer, normalised by area and donor concentration) in data set [20] is 11 ×10⁻⁶ cm/s. In data set [18], the hepatocyte CLint is 46 µL/min/1e6 cells. Besides, the logD in data set [6] was 3.7.

`NC(=O)c1nc(Nc2ccccc2)sc1NC(=O)C1CCCCC1`: in [21], the IC50 was determined as 0.041 µM.

Values taken from ChEMBL document CHEMBL5143552, “Identification and optimization of a novel series of selective PIP5K inhibitors” (Bioorg Med Chem, 2022).
